System: genotype 1b (Con-1) HCV replicon
Test: HCV Replicon Luciferase Assay
Type: cell-based
Conditions: Hepatitis C virus, 72 h; genotype 1b HCV replicon, Huh-7, Renilla luciferase, 3 days; read-out: EC50 1b (class)
Experimental: Cell Lines. The cell lines used to evaluate compounds consist of a human hepatocyte derived cell line (Huh-7) that constitutively expresses a genotype 1b (Con-1) HCV replicon or a genotype 1b (Con-1) HCV replicon with an asparagine replacing the cysteine at amino acid 316, or a genotype 2a (JFH-1) replicon, containing a Renilla luciferase reporter gene. These cells were maintained in Dulbecco's modified Eagle medium (DMEM) containing 10% FBS, 100 U/mL penicillin/streptomycin and 1.0 mg/mL G418.
HCV Replicon Luciferase Assay. To evaluate compound efficacy, titrated compounds were transferred to sterile 384-well tissue culture treated plates, and the plates were seeded with HCV replicon cells (50 μL at a density of 2.4×10^3 cells/well) in DMEM containing 4% FBS (final DMSO concentration at 0.5%). After 3 days incubation at 37° C., cells were analyzed for Renilla Luciferase activity using the EnduRen substrate (Promega cat #E6485) according to the manufacturer's directions. Briefly, the EnduRen substrate was diluted in DMEM and then added to the plates to a final concentration of 7.5 μM. The plates were incubated for at least 1 h at 37° C. then read on a Viewlux Imager (PerkinElmer) using a luminescence program. The 50% effective concentration (EC50) was calculated using the four-parameter logistic formula noted above.

| Compound | EC50 [µM] |
| --- | --- |
| CNC(=O)c1c(-c2ccc(F)cc2)oc2cc(N(CCF)S(C)(=O)=O)c(-c3cccc(C(=O)N4CCn5cccc5C4c4cccnc4)c3)cc12 (stereo not drawn) [Compound 1005] | < 0.1 |
| CNC(=O)c1c(-c2ccc(F)cc2)oc2cc(N(CCF)S(C)(=O)=O)c(-c3cccc(C(=O)N4CCn5cc(C(F)(F)F)nc5C4)c3)cc12 [Compound 1001] | < 0.1 |
| CNC(=O)c1c(-c2ccc(F)cc2)oc2cc(N(CCF)S(C)(=O)=O)c(-c3cccc(C(=O)N4CCn5c(nnc5C(F)(F)F)C4)c3)cc12 [Compound 1002] | 0.1 to 1 |
| CNC(=O)c1c(-c2ccc(F)cc2)oc2cc(N(CCF)S(C)(=O)=O)c(-c3cccc(C(=O)N4CCC5CC54)c3)cc12 (stereo not drawn) [Compound 1006] | < 0.1 |
| CNC(=O)c1c(-c2ccc(F)cc2)oc2cc(N(CCF)S(C)(=O)=O)c(-c3cccc(C(=O)N4CC5CCN(C(=O)OC(C)(C)C)C5C4)c3)cc12 (stereo not drawn) [Compound 1009] | 0.1 to 1 |
| CNC(=O)c1c(-c2ccc(F)cc2)oc2cc(N(CCF)S(C)(=O)=O)c(-c3cccc(C(=O)N4CCc5nc[nH]c5C4)c3)cc12 [Compound 1003] | > 1 |
| CNC(=O)c1c(-c2ccc(F)cc2)oc2cc(N(CCF)S(C)(=O)=O)c(-c3cccc(C(=O)N4CCC5(CCN(C(=O)OC(C)(C)C)C5)C4)c3)cc12 (stereo not drawn) [Compound 1008] | < 0.1 |
| CNC(=O)c1c(-c2ccc(F)cc2)oc2cc(N(CCF)S(C)(=O)=O)c(-c3cccc(C(=O)N4[C@H](C(N)=O)C[C@@H]5C[C@@H]54)c3)cc12 [Compound 1007] | > 1 |
| CNC(=O)c1c(-c2ccc(F)cc2)oc2cc(N(CCF)S(C)(=O)=O)c(-c3cccc(C(=O)N4CC5CCN(C(=O)OC(C)(C)C)CC5C4)c3)cc12 (stereo not drawn) [Compound 1010] | < 0.1 |
| CNC(=O)c1c(-c2ccc(F)cc2)oc2cc(N(CCF)S(C)(=O)=O)c(-c3cccc(C(=O)N4CCc5[nH]ncc5C4)c3)cc12 [Compound 1004] | 0.1 to 1 |

Same assay, conditions: Hepatitis C virus, 72 h; genotype 1b HCV replicon, Huh-7, Renilla luciferase, 3 days; read-out: EC50 (uM) 1b

| Compound | EC50 [µM] |
| --- | --- |
| CNC(=O)c1c(-c2ccc(F)cc2)oc2cc(N(CCF)S(C)(=O)=O)c(-c3cccc(C(=O)N4CCn5cc(C(F)(F)F)nc5C4)c3)cc12 [Compound 1001] | 0.0349 |
| CNC(=O)c1c(-c2ccc(F)cc2)oc2cc(N(CCF)S(C)(=O)=O)c(-c3cccc(C(=O)N4CCC5(CCN(C(=O)OC(C)(C)C)C5)C4)c3)cc12 (stereo not drawn) [Compound 1008] | 0.0964 |
| CNC(=O)c1c(-c2ccc(F)cc2)oc2cc(N(CCF)S(C)(=O)=O)c(-c3cccc(C(=O)N4CCc5[nH]ncc5C4)c3)cc12 [Compound 1004] | 0.975 |

System: HCV
Test: not given
Conditions: single agent: transient decrease then rebound; cited from earlier work

| Compound | HCV RNA levels in patients |
| --- | --- |
| CNC(=O)c1c(-c2ccc(F)cc2)oc2cc(N(CCO)S(C)(=O)=O)c(C3CC3)cc12 [HCV-796] | reduce HCV RNA levels |

System: not given
Test: not given
Conditions: extended dosing of combination regimens with interferon and ribavirin; cited from earlier work

| Compound | hepatic toxicity |
| --- | --- |
| CNC(=O)c1c(-c2ccc(F)cc2)oc2cc(N(CCO)S(C)(=O)=O)c(C3CC3)cc12 [HCV-796] | hepatic toxicity |
